Assay [1] concerns Karenia brevis. In words: Inhibition of Karenia brevis TrxR assessed as reduction in substrate reduction at 40 uM using DTNB as a substrate incubated for 60 mins in the presence of NADPH followed by substrate addition measured for 5 mins by absorbance based assay relative to control.
In assay [2] the test system is Karenia brevis. Nature of the assay: Inhibition of Karenia brevis TrxR assessed as reduction in substrate reduction at 10 to 100 uM using H2O2 as a substrate incubated for 60 mins in the presence of NADPH followed by substrate addition measured for 15 mins by absorbance based assay relative to control. Conditions: dose 10-100 µM.
Assay [3] concerns Karenia brevis. In words: Inhibition of Karenia brevis TrxR assessed as reduction in substrate reduction at 40 uM using human Trx and insulin as a substrate incubated for 60 mins in the presence of NADPH followed by substrate addition measured for 5 mins by absorbance based assay relative to control.
Assay [4] has as its system Karenia brevis. Nature of the assay: Inhibition of Karenia brevis TrxR assessed as reduction in substrate reduction at 40 uM using GSSG as a substrate incubated for 60 mins in the presence of NADPH followed by substrate addition measured for 30 mins by absorbance based assay relative to control.
The subject of assay [5] is Karenia brevis. Nature of the assay: Inhibition of Karenia brevis TrxRD3 assessed as reduction in substrate reduction at 40 uM using DTNB as a substrate incubated for 60 mins in the presence of NADPH followed by substrate addition measured for 5 mins by absorbance based assay relative to control.
Assay [6] can be described thus: Inhibition of Karenia brevis TrxR assessed as reduction in substrate reduction using H2O2 as a substrate incubated for 60 mins in the presence of NADPH followed by substrate addition measured for 15 mins by absorbance based assay.
The target of assay [7] is T1, Thioredoxin reductase 1, cytoplasmic (Rattus norvegicus) (UniProt O89049).
T1 sequence (whole entry): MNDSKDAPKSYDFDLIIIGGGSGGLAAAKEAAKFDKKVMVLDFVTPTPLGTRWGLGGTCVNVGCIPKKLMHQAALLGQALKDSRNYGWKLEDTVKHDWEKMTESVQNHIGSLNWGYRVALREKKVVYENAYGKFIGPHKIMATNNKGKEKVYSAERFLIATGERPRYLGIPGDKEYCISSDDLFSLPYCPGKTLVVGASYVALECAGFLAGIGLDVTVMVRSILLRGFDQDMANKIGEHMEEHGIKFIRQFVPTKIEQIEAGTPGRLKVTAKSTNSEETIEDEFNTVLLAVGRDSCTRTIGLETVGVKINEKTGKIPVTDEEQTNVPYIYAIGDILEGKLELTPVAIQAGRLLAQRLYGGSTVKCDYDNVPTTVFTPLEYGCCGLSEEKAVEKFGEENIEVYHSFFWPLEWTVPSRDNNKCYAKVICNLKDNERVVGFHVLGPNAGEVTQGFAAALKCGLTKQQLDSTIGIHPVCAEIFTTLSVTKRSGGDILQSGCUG
Nature of the assay: Binding affinity to rat TrxR1 assessed as adduct formation at 7.2 uM by LC-MS/MS analysis.

Assay [8] concerns Karenia brevis. In words: Binding affinity Karenia brevis TrxR assessed as formation at 7.2 uM by LC-MS/MS analysis.

For one molecule, inhibition, IC50 and Activity results are on record in ChEMBL document CHEMBL4831549, “The Marine Neurotoxin Brevetoxin (PbTx-2) Inhibits Karenia brevis and Mammalian Thioredoxin Reductases by Targeting Different Residues” (J Nat Prod, 2021).

A word on the inhibition: it is the share of the control response that was lost under treatment. One may read the pIC50 as the IC50 on a negative log10 scale, so that one unit is a factor of ten.

pIC50: −log10 of the molar value. Active and inactive are the calls of the source. The rule behind the calls is not given here.

`C=C(C=O)C[C@@H]1C[C@H](O)[C@]2(C)O[C@@H]3C[C@@H]4O[C@@H]5C[C@]6(C)O[C@]7(C)CC[C@@H]8O[C@@H]9C[C@]%10(C)O[C@@H]%11C(C)=CC(=O)O[C@H]%11C[C@H]%10O[C@H]9C[C@@H](C)[C@H]8O[C@H]7C[C@H]6O[C@@]5(C)C/C=C\[C@H]4O[C@H]3C[C@H]2O1` [BREVETOXIN B]: the inhibition is 44.7% with Karenia brevis [1]; 39.6% in the assay on Karenia brevis [2]; 34% in the assay on Karenia brevis [3]; 32.5% with Karenia brevis [4]; 20.7% in the assay on Karenia brevis [5]. Moreover, in assay [6], the pIC50 was 4.25. For the same molecule, the result (in assay [7]; in the assay on Karenia brevis [8]) was Active.
